# Assay results taken from ChEMBL document CHEMBL1201862, “PubChem BioAssay data set” (2004).
# Activity calls are given as the source filed them.
# How the values were obtained:
# [1] = biological target: Intestinal-type alkaline phosphatase (Homo sapiens, UniProt P09923); assay: inhibition of human intestinal alkaline phosphatase – biochemical, dose response (AID 488876); format: functional
# [2] = biological target: Large T antigen (Simian virus 40, UniProt P03070); format: functional, Betapolyomavirus macacae;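 further: Confirmatory-stage PubChem screen for compounds that inhibit SV40 T antigen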
# [3] = biological target: T1, Carboxy-terminal domain RNA polymerase II polypeptide A small phosphatase 1 (Homo sapiens, UniProt Q9GZU7); assay: CTDSP1 inhibitors, concentration-response, biochemical, absorbance readout, ultra-high-throughput screen actives (AID 540297); format: functional
# T1 sequence (Q9GZU7 whole entry): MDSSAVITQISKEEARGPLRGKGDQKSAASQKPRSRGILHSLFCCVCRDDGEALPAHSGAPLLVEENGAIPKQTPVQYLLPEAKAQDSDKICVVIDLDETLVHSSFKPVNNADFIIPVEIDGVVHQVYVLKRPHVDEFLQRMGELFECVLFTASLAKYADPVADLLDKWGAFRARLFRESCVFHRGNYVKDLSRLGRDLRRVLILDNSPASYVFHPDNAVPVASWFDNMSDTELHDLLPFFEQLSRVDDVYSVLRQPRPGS
# [4] = biological target: Intestinal-type alkaline phosphatase (Mus musculus, UniProt P24822); assay: PubChem AID 488785; format: functional
# [5] = biological target: T2, RNA-binding protein pos-1 (Caenorhabditis elegans, UniProt G5EF15); assay: disruptors of C. elegans POS-1 RNA interaction – biochemical, fluorescence polarization, dose response (AID 1964);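 further: purified POS-1 fused to maltose binding protein made in E. coli; potency of compounds blocking POS-1 binding to fluorescent RNA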
# T2 sequence (G5EF15 whole entry): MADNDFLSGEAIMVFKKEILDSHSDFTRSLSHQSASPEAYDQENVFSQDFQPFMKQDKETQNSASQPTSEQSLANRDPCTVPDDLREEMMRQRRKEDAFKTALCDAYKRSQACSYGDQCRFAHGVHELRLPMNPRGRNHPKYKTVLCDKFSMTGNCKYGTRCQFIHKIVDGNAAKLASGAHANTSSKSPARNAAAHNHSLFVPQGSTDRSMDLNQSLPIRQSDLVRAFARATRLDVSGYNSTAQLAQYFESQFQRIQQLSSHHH
# [6] = biological target: T3, Aspartyl aminopeptidase (Plasmodium falciparum 3D7, UniProt Q8I2J3)
# T3 sequence (Q8I2J3 whole entry): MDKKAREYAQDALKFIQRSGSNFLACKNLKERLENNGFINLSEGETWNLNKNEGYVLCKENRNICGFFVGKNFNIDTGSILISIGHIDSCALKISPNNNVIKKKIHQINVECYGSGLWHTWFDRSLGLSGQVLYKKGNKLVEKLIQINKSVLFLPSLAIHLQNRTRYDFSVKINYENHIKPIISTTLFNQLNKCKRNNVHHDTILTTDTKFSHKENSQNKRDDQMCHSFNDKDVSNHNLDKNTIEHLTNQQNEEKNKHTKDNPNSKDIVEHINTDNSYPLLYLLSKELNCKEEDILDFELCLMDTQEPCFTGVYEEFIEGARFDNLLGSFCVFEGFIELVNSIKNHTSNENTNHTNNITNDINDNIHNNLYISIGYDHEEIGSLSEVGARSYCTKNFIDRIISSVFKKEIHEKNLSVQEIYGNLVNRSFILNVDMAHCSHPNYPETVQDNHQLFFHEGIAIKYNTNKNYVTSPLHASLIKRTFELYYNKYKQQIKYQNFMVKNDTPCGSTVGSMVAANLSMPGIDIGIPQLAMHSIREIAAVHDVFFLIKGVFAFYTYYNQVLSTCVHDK
# [7] = biological target: T4, Zinc finger protein mex-5 (Caenorhabditis elegans, UniProt Q9XUB2); assay: potency of MEX-5 RNA-binding blockers – biochemical, C. elegans, fluorescence polarization, dose response (AID 1960)
# T4 sequence (Q9XUB2 whole entry): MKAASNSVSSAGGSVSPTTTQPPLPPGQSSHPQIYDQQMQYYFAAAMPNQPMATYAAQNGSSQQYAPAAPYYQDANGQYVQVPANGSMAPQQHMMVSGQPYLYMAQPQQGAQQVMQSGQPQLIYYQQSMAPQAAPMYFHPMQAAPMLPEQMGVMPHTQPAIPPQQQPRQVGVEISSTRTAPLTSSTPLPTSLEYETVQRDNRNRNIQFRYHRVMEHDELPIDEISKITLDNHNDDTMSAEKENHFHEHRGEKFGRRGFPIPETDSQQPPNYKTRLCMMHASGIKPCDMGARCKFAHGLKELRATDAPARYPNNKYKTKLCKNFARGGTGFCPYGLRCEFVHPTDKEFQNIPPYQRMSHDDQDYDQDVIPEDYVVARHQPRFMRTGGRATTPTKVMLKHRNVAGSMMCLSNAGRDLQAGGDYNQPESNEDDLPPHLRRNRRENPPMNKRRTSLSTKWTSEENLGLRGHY
# [8] = biological target: FAD-linked sulfhydryl oxidase ALR (Homo sapiens, UniProt P55789); assay: ALR-catalysed DTT oxidation blockers – biochemical, H2O2 detection, luminescence, cherry-pick, dose response (AID 493248)
# [9] = biological target: Procathepsin L (Homo sapiens, UniProt P07711)
# [10] = biological target: T5, Alkaline phosphatase, tissue-nonspecific isozyme (Homo sapiens, UniProt P05186); assay: TNAP enzyme inhibition by screening hits, dose response, selectivity assay for mouse IAP inhibitor project, biochemical, human TNAP, uHTS hits (AID 488906); format: functional
# T5 sequence (P05186 whole entry): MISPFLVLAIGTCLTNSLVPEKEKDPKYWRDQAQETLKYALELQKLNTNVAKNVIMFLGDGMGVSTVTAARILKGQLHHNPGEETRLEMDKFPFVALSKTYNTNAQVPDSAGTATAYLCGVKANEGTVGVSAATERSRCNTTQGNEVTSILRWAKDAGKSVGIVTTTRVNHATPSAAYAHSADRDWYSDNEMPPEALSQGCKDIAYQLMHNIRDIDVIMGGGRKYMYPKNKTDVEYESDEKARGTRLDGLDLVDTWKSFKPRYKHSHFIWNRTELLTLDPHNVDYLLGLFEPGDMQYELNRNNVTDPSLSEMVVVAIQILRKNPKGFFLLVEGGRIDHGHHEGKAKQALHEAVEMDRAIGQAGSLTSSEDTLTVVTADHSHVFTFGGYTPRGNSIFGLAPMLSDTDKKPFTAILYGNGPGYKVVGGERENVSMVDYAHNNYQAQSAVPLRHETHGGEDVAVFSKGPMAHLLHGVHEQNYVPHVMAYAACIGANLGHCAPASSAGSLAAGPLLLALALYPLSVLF
# [11] = biological target: T6, Heat shock factor protein 1 (Mus musculus, UniProt P38532); assay: enhancement of HSF1-driven luciferase signal – cell-based, NIH3T3, luminescence, dose retest, confirmation (AID 435004); format: functional;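 further: stress induced by proteasome inhibitor MG132 added 30 min after compound; luciferase reporter driven by HSF1 response element in NIH3T3 cells; actives raise luminescence as potentiators of the MG132 stress response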
# T6 sequence (P38532 whole entry): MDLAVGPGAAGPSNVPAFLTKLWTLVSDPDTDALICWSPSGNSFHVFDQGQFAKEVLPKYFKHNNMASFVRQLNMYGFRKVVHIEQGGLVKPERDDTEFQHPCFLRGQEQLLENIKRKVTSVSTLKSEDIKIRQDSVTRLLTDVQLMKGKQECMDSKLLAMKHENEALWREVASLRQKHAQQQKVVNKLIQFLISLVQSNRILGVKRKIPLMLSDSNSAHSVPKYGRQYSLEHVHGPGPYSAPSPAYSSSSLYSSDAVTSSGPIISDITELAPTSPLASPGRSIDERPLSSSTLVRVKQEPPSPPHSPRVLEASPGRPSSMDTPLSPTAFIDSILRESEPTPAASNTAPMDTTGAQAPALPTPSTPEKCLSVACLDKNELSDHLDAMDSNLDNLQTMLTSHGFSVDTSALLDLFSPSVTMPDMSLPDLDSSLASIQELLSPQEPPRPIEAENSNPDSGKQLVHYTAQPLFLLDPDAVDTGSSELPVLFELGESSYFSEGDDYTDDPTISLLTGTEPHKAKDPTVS
# [12] = biological target: Genome polyprotein (dengue virus type 2, UniProt P29990); assay: flavivirus cap methylation enzyme inhibition – biochemical, confirmation dose response, primary screen (AID 588689); format: functional
# [13] = test system: HEK293; assay: cells; settings: Homo sapiens;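 further: cells exposed to compound for 14 hours overnight before viability readout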
# [14] = biological target: T7, Nucleotide-binding oligomerization domain-containing protein 1 (Homo sapiens, UniProt Q9Y239); assay: blockers of NOD1 pathway activity – revised, SAR follow-up (AID 2333); format: functional
# T7 sequence (Q9Y239 whole entry): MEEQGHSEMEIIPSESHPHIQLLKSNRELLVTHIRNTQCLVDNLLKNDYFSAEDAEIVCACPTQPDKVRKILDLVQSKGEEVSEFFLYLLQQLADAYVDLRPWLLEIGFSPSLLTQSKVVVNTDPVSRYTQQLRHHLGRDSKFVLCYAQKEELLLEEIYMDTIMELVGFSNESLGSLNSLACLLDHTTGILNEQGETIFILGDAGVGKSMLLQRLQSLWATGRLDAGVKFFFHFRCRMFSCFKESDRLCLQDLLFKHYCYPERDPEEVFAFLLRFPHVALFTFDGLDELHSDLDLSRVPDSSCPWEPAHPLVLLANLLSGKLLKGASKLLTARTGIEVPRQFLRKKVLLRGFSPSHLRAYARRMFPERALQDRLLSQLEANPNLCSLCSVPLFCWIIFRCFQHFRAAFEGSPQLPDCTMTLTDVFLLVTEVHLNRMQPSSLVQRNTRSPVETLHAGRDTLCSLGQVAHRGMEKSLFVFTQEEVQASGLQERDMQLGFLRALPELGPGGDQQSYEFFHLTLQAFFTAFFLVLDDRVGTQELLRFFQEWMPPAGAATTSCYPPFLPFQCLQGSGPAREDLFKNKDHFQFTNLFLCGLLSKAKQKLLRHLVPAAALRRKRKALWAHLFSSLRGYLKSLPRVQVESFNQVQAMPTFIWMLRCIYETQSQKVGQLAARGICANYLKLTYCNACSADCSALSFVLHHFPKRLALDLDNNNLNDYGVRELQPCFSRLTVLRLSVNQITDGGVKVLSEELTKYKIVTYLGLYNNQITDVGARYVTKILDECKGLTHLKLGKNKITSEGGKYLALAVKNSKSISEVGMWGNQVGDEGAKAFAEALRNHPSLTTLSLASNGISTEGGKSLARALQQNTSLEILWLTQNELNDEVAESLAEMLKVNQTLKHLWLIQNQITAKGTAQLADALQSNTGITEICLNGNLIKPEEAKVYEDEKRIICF
# [15] = biological target: Tumor necrosis factor (Homo sapiens, UniProt P01375); assay: analog potency on TNFa NF-kB signaling – cell-based, revised, SAR follow-up (AID 2337); format: functional
# Tumor necrosis factor, sequence (P01375 whole entry): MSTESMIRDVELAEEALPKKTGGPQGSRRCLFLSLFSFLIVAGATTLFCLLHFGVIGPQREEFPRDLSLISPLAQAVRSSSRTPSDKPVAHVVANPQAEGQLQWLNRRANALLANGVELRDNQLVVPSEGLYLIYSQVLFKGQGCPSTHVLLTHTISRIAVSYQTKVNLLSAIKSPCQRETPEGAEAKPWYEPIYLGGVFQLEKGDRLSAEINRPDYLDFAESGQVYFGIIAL
# Intestinal-type alkaline phosphatase (Homo sapiens, UniProt P09923), sequence (P09923 whole entry): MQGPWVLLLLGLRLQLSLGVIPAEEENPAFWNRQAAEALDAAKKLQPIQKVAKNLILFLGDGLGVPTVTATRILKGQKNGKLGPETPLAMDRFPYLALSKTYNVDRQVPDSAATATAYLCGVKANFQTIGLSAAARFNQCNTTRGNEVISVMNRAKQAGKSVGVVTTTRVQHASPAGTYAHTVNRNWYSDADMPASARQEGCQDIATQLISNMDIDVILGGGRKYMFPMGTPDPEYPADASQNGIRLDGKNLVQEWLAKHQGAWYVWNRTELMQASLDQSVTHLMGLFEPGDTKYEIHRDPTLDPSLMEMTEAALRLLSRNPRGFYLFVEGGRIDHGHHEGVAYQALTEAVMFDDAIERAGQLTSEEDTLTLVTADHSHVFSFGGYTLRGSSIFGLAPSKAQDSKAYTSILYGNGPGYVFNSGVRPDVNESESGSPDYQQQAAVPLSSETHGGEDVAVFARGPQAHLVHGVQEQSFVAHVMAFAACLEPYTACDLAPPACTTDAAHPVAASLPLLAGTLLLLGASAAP
# Intestinal-type alkaline phosphatase (Mus musculus, UniProt P24822), sequence (P24822 whole entry, the tested form may be a part): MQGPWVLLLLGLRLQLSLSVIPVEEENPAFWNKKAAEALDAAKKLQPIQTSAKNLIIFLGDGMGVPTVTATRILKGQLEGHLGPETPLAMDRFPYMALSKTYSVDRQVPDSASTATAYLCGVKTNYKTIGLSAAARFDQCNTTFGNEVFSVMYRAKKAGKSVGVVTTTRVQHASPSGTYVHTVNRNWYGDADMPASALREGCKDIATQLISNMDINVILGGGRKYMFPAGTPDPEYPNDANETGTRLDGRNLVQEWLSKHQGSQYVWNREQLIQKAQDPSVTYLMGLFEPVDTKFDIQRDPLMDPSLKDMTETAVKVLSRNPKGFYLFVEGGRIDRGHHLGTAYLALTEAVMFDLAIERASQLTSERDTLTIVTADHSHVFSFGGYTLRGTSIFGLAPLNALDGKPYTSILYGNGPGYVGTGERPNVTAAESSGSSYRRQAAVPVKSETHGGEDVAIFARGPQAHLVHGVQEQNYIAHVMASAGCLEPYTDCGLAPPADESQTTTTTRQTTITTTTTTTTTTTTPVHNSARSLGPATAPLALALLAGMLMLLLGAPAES
# Procathepsin L, sequence (P07711 whole entry): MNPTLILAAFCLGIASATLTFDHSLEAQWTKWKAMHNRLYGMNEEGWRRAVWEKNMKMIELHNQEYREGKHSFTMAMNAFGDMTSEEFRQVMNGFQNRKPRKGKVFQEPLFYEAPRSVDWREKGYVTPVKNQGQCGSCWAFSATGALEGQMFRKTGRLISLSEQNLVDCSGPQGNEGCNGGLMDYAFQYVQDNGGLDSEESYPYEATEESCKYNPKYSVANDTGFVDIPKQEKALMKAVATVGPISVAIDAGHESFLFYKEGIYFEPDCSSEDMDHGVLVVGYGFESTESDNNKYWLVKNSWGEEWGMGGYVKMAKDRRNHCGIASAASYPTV
# FAD-linked sulfhydryl oxidase ALR, sequence (P55789 whole entry): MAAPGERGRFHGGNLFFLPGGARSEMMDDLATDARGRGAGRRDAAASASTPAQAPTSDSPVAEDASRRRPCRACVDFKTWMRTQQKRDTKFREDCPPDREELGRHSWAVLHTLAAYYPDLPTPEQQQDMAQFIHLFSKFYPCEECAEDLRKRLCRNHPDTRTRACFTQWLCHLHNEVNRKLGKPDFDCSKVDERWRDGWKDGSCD
# Large T antigen, sequence (P03070 whole entry, the tested form may be a part): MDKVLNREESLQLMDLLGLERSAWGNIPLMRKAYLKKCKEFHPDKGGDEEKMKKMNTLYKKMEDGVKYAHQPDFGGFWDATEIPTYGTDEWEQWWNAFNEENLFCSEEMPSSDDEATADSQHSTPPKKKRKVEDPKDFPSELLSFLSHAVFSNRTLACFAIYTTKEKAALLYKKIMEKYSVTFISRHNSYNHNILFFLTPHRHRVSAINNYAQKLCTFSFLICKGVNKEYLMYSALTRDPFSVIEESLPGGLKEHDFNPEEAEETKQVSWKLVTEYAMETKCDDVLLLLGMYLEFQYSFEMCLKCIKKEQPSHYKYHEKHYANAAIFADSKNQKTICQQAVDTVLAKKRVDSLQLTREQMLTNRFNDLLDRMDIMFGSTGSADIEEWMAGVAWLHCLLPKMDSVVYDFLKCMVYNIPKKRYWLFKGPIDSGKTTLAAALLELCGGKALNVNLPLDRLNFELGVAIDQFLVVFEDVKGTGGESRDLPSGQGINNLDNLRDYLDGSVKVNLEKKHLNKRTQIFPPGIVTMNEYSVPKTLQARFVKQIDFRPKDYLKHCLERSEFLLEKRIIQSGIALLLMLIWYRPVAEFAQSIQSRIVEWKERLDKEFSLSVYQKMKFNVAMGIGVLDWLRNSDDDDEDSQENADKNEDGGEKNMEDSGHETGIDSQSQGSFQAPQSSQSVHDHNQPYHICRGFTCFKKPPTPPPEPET
# Genome polyprotein, sequence (P29990 2492-3391 limits assumed): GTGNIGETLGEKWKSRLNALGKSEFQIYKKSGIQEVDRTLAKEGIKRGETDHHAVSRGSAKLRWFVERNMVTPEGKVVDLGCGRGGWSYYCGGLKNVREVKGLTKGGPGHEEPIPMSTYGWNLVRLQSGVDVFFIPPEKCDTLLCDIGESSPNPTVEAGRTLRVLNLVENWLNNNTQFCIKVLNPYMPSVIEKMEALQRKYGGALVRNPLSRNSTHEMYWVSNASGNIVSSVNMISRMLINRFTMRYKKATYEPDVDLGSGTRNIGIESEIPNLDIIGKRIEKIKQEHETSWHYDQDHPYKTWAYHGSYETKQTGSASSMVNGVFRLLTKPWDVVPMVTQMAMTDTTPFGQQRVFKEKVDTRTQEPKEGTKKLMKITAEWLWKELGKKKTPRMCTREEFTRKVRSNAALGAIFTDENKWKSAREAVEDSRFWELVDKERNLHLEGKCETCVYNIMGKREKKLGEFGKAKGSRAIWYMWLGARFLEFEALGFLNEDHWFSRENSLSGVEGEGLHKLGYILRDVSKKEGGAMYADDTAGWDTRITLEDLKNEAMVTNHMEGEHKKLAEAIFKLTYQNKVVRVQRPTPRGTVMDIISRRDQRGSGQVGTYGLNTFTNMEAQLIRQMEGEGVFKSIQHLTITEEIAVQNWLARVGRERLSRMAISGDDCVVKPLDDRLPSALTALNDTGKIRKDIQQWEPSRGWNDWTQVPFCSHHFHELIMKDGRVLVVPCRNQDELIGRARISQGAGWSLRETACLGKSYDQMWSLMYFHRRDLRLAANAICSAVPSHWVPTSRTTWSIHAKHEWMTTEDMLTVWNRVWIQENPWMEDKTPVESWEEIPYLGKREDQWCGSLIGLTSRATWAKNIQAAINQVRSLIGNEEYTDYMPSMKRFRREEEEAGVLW
SMILES,IC50 [1],IC50 [2],IC50 [3],IC50 [4],EC50 [5],IC50 [6],EC50 [7],AC50 [8],IC50 [9],IC50 [10],EC50 [11],IC50 [12],IC50 [13],IC50 [14],IC50 [15]
O=[N+]([O-])c1c(O)nc(/C=C\c2ccc(O)c(O)c2)nc1O,4.34 µM (active),4.72 µM (active),36.1 µM (active),1.04 µM (active),250 µM (active),0.67 µM (active),179 µM (active),1.05 µM (active),> 59.6 µM (not active),1.12 µM (active),,,,,
Cc1ccc(Cl)c2c(C3=NC(=S)NC3=O)c(O)[nH]c12,> 100 µM (inactive),,,0.206 µM (active),14.3 µM (active),,0.294 µM (inconclusive),,,0.211 µM (active),> 260 µM (inactive),61.5 µM (active),,,
CC1Cc2cc(S(=O)(=O)N3CCN(c4ccccc4)CC3)ccc2N1C(=O)C1CC1 (stereo not given),,,,,,,,,,,,,> 20 µM (inactive),> 20 µM (inactive),15.3 µM (active)
